{"source": "patent US20250353853A1", "about": "“FLAVIVIRUS INHIBITORS” (IRBM S.P.A., priority 2022, published 2025)", "note": "Counter-ions that a name gives are not always drawn."}
{"system": "ZIKV replicon in Vero cells", "experiment": "ZIKV Replication Inhibition Assay (replicon, NanoLuc)", "conditions": "Zika virus, Vero, 72 h, read-out: Zika Replicon EC50", "units": {"EC50": "µM"}}
{"smiles": "CC(Cc1ccccc1)[n+]1cc([N-]C(=O)Nc2cccc(C(F)(F)F)c2)on1", "note": "(stereo not drawn) [Example 1, (3-(1-Phenylpropan-2-yl)-1,2,3-oxadiazol-3-ium-5-yl)((3-(trifluoromethyl)phenyl)carbamoyl)amide]", "EC50": "1 to 20"}
{"smiles": "CC(Cc1ccccc1)[n+]1cc([N-]C(=O)Nc2ccc(C(F)(F)F)cc2)on1", "note": "(stereo not drawn) [Example 2, (3-(1-phenylpropan-2-yl)-1,2,3-oxadiazol-3-ium-5-yl)((4-(trifluoromethyl)phenyl)carbamoyl)amide]", "EC50": "> 20"}
{"smiles": "CC(Cc1ccccc1)[n+]1cc([N-]C(=O)Nc2ccc3ccccc3c2)on1", "note": "(stereo not drawn) [Example 3, (Naphthalen-2-ylcarbamoyl)(3-(1-phenylpropan-2-yl)-1,2,3-oxadiazol-3-ium-5-yl)amide]", "EC50": "> 20"}
{"smiles": "CC(Cc1ccccc1)[n+]1cc([N-]C(=O)Nc2ncc(C(F)(F)F)s2)on1", "note": "(stereo not drawn) [Example 4, (3-(1-phenylpropan-2-yl)-1,2,3-oxadiazol-3-ium-5-yl)((5-(trifluoromethyl)thiazol-2-yl)carbamoyl)amide]", "EC50": "1 to 20"}
{"smiles": "O=C([N-]c1c[n+](CCc2ccccc2)no1)Nc1cccc(C(F)(F)F)c1", "note": "[Example 5, (3-phenethyl-1,2,3-oxadiazol-3-ium-5-yl)((3-(trifluoromethyl)phenyl)carbamoyl)amide]", "EC50": "0.1 to 1"}
{"smiles": "O=C([N-]c1c[n+](Cc2ccccc2)no1)Nc1cccc(C(F)(F)F)c1", "note": "[Example 6, (3-Benzyl-1,2,3-oxadiazol-3-ium-5-yl)((3-(trifluoromethyl)phenyl)carbamoyl) amide]", "EC50": "1 to 20"}
{"smiles": "O=C([N-]c1c[n+](-c2ccccc2)no1)Nc1cccc(C(F)(F)F)c1", "note": "[Example 7, (3-phenyl-1,2,3-oxadiazol-3-ium-5-yl)((3-(trifluoromethyl)phenyl)carbamoyl) amide]", "EC50": "1 to 20"}
{"smiles": "CC(Cc1ccccc1)[n+]1cc([N-]C(=O)Nc2cccc(Cl)c2)on1", "note": "(stereo not drawn) [Example 8, ((3-chlorophenyl)carbamoyl)(3-(1-phenylpropan-2-yl)-1,2,3-oxadiazol-3-ium-5-yl)amide]", "EC50": "> 20"}
{"smiles": "CC(Cc1ccc(Cl)c(Cl)c1)[n+]1cc([N-]C(=O)Nc2cccc(C(F)(F)F)c2)on1", "note": "(stereo not drawn) [Example 9, (3-(1-(3,4-dichlorophenyl)propan-2-yl)-1,2,3-oxadiazol-3-ium-5-yl)((3-(trifluoromethyl)phenyl)carbamoyl)amide]", "EC50": "1 to 20"}
{"smiles": "O=C([N-]c1c[n+](C2Cc3ccccc3C2)no1)Nc1cccc(C(F)(F)F)c1", "note": "[Example 10, (3-(2,3-dihydro-1H-inden-2-yl)-1,2,3-oxadiazol-3-ium-5-yl)((3-(trifluoromethyl)phenyl)carbamoyl)amide]", "EC50": "1 to 20"}
{"smiles": "CC(Cc1ccccc1)[n+]1cc([N-]C(=O)Nc2cc(F)cc(C(F)(F)F)c2)on1", "note": "(stereo not drawn) [Example 11, ((3-fluoro-5-(trifluoromethyl)phenyl)carbamoyl)(3-(1-phenylpropan-2-yl)-1,2,3-oxadiazol-3-ium-5-yl)amide]", "EC50": "> 20"}
{"smiles": "CC(Cc1ccccc1)[n+]1cc([N-]C(=O)Nc2ccc3ncccc3c2)on1", "note": "(stereo not drawn) [Example 12, (3-(1-phenylpropan-2-yl)-1,2,3-oxadiazol-3-ium-5-yl)(quinolin-6-ylcarbamoyl) amide]", "EC50": "> 20"}
{"smiles": "C[C@H](Cc1ccccc1)[n+]1cc([N-]C(=O)Nc2cccc(C(F)(F)F)c2)on1", "note": "[Example 13, (R)-(3-(1-phenylpropan-2-yl)-1,2,3-oxadiazol-3-ium-5-yl)((3-(trifluoromethyl)phenyl)carbamoyl)amide]", "EC50": "1 to 20"}
{"smiles": "C[C@@H](Cc1ccccc1)[n+]1cc([N-]C(=O)Nc2cccc(C(F)(F)F)c2)on1", "note": "[Example 14, (S)-(3-(1-phenylpropan-2-yl)-1,2,3-oxadiazol-3-ium-5-yl)((3-(trifluoromethyl)phenyl)carbamoyl)amide]", "EC50": "> 20"}
{"smiles": "CC(Cc1ccccc1)[n+]1cc([N-]C(=O)Nc2cncc(C(F)(F)F)c2)on1", "note": "(stereo not drawn) [Example 15, (3-(1-Phenylpropan-2-yl)-1,2,3-oxadiazol-3-ium-5-yl)((5-(trifluoromethyl)pyridin-3-yl)carbamoyl)amide]", "EC50": "1 to 20"}
{"smiles": "CC(Cc1ccccc1)[n+]1cc([N-]C(=O)Nc2cc(C(F)(F)F)ccn2)on1", "note": "(stereo not drawn) [Example 16, (3-(1-phenylpropan-2-yl)-1,2,3-oxadiazol-3-ium-5-yl)((4-(trifluoromethyl)pyridin-2-yl)carbamoyl)amide]", "EC50": "> 20"}
{"smiles": "O=C([N-]c1c[n+](Cc2ccc(-c3ccccc3)cc2)no1)Nc1cccc(C(F)(F)F)c1", "note": "[Example 17, (3-([1,1′-Biphenyl]-4-ylmethyl)-1,2,3-oxadiazol-3-ium-5-yl)((3-(trifluoromethyl)phenyl)carbamoyl)amide]", "EC50": "0.1 to 1"}
{"smiles": "O=C([N-]c1c[n+](Cc2ccc3ccccc3c2)no1)Nc1cccc(C(F)(F)F)c1", "note": "[Example 18, (3-(naphthalen-2-ylmethyl)-1,2,3-oxadiazol-3-ium-5-yl)((3-(trifluoromethyl)phenyl)carbamoyl)amide]", "EC50": "1 to 20"}
{"smiles": "O=C([N-]c1c[n+](Cc2ccc(-c3ccsc3)cc2)no1)Nc1cccc(C(F)(F)F)c1", "note": "[Example 20, (3-(4-(thiophen-3-yl)benzyl)-1,2,3-oxadiazol-3-ium-5-yl)((3(trifluoromethyl)phenyl)carbamoyl)amide]", "EC50": "0.1 to 1"}
{"smiles": "Cc1ccccc1-c1ccc(C[n+]2cc([N-]C(=O)Nc3cccc(C(F)(F)F)c3)on2)cc1", "note": "[Example 21, (3-((2′-methyl-[1,1′-biphenyl]-4-yl)methyl)-1,2,3-oxadiazol-3-ium-5-yl)((3-(trifluoromethyl)phenyl)carbamoyl)amide]", "EC50": "0.1 to 1"}
{"smiles": "O=C([N-]c1on[n+](Cc2ccccc2)c1Cl)Nc1cccc(C(F)(F)F)c1", "note": "[Example 24, (3-Benzyl-4-chloro-1,2,3-oxadiazol-3-ium-5-yl)((3-(trifluoromethyl)phenyl)carbamoyl)amide]", "EC50": "> 20"}
{"smiles": "O=C([N-]c1c[n+](C2(c3ccccc3)CC2)no1)Nc1cccc(C(F)(F)F)c1", "note": "[Example 25, (3-(1-phenylcyclopropyl)-1,2,3-oxadiazol-3-ium-5-yl)((3-(trifluoromethyl)phenyl)carbamoyl)amide]", "EC50": "1 to 20"}
{"smiles": "O=C([N-]c1c[n+](Cc2cccc(-c3ccccc3)c2)no1)Nc1cccc(C(F)(F)F)c1", "note": "[Example 27, (3-([1,1′-biphenyl]-3-ylmethyl)-1,2,3-oxadiazol-3-ium-5-yl)((3-(trifluoromethyl)phenyl)carbamoyl)amide]", "EC50": "1 to 20"}
{"smiles": "CC(C[n+]1cc([N-]C(=O)Nc2cccc(C(F)(F)F)c2)on1)c1ccccc1", "note": "(stereo not drawn) [Example 28, (3-(2-phenylpropyl)-1,2,3-oxadiazol-3-ium-5-yl)((3-(trifluoromethyl)phenyl)carbamoyl)amide]", "EC50": "0.1 to 1"}
{"smiles": "O=C([N-]c1c[n+](Cc2cccnc2)no1)Nc1cccc(C(F)(F)F)c1", "note": "[Example 29, (3-(pyridin-3-ylmethyl)-1,2,3-oxadiazol-3-ium-5-yl)((3-(trifluoromethyl)phenyl)carbamoyl)amide]", "EC50": "1 to 20"}
{"smiles": "O=C([N-]c1c[n+]([C@@H](CO)c2ccccc2)no1)Nc1cccc(C(F)(F)F)c1", "note": "[Example 30, (R)-(3-(2-hydroxy-1-phenylethyl)-1,2,3-oxadiazol-3-ium-5-yl)((3-(trifluoromethyl)phenyl)carbamoyl)amide]", "EC50": "1 to 20"}
{"smiles": "O=C([N-]c1c[n+]([C@H](CO)c2ccccc2)no1)Nc1cccc(C(F)(F)F)c1", "note": "[Example 31, (S)-(3-(2-hydroxy-1-phenylethyl)-1,2,3-oxadiazol-3-ium-5-yl)((3-(trifluoromethyl)phenyl)carbamoyl)amide]", "EC50": "> 20"}
{"smiles": "O=C([N-]c1c[n+]([C@H](CO)Cc2ccccc2)no1)Nc1cccc(C(F)(F)F)c1", "note": "[Example 32, (S)-(3-(1-hydroxy-3-phenylpropan-2-yl)-1,2,3-oxadiazol-3-ium-5-yl)((3-(trifluoromethyl)phenyl)carbamoyl)amide]", "EC50": "1 to 20"}
{"smiles": "Cc1cc(NC(=O)[N-]c2c[n+](C(C)Cc3ccccc3)no2)cc(C(F)(F)F)c1", "note": "(stereo not drawn) [Example 33, ((3-methyl-5-(trifluoromethyl)phenyl)carbamoyl)(3-(1-phenylpropan-2-yl)-1,2,3-oxadiazol-3-ium-5-yl)amide]", "EC50": "> 20"}
{"smiles": "COc1cc(NC(=O)[N-]c2c[n+](C(C)Cc3ccccc3)no2)cc(C(F)(F)F)c1", "note": "(stereo not drawn) [Example 34, ((3-methoxy-5-(trifluoromethyl)phenyl)carbamoyl)(3-(1-phenylpropan-2-yl)-1,2,3-oxadiazol-3-ium-5-yl)amide]", "EC50": "> 20"}
{"smiles": "C=C(c1ccccc1)[n+]1cc([N-]C(=O)Nc2cccc(C(F)(F)F)c2)on1", "note": "[Example 35, (3-(1-Phenylvinyl)-1,2,3-oxadiazol-3-ium-5-yl)((3-(trifluoromethyl)phenyl)carbamoyl)amide]", "EC50": "1 to 20"}
{"smiles": "C=C(Cc1ccccc1)[n+]1cc([N-]C(=O)Nc2cccc(C(F)(F)F)c2)on1", "note": "[Example 36, (3-(3-phenylprop-1-en-2-yl)-1,2,3-oxadiazol-3-ium-5-yl)((3-(trifluoromethyl)phenyl)carbamoyl)amide]", "EC50": "> 20"}
{"smiles": "O=C([N-]c1c[n+]([C@H](CF)Cc2ccccc2)no1)Nc1cccc(C(F)(F)F)c1", "note": "[Example 37, (S)-(3-(1-fluoro-3-phenylpropan-2-yl)-1,2,3-oxadiazol-3-ium-5-yl)((3-(trifluoromethyl)phenyl)carbamoyl)amide]", "EC50": "> 20"}
{"smiles": "CC(c1ccccc1)[n+]1cc([N-]C(=O)Nc2cccc(C(F)(F)F)c2)on1", "note": "(stereo not drawn) [Example 38, (3-(1-phenylethyl)-1,2,3-oxadiazol-3-ium-5-yl)((3-(trifluoromethyl)phenyl)carbamoyl)amide]", "EC50": "1 to 20"}
{"smiles": "Cc1nc(OCCN(C)C)ncc1-c1ccc(C[n+]2cc([N-]C(=O)Nc3cccc(C(F)(F)F)c3)on2)nc1", "note": "[Example 43, (3-((5-(2-(2-(dimethylamino)ethoxy)-4-methylpyrimidin-5-yl)pyridin-2-yl)methyl)-1,2,3-oxadiazol-3-ium-5-yl)((3-(trifluoromethyl)phenyl)carbamoyl)amide]", "EC50": "0.1 to 1"}
{"smiles": "NC[C@@H](Cc1ccccc1)[n+]1cc([N-]C(=O)Nc2cccc(C(F)(F)F)c2)on1", "note": "[Example 49, (R)-(3-(1-amino-3-phenylpropan-2-yl)-1,2,3-oxadiazol-3-ium-5-yl)((3-(trifluoromethyl)phenyl)carbamoyl)amide formate]", "EC50": "> 20"}
